Source: PMC11124362, “Metabolism, Disposition, Excretion, and Potential Transporter Inhibition of 7–16, an Improving 5-HT2A Receptor Antagonist and Inverse Agonist for Parkinson’s Disease” (Molecules, 2024)

Columns and labels:
CYP2C8 = test: Metabolic phenotype by rhCYP isozymes, CYP2C8; format: in vitro ADME, human; details: 7–16 1 µM
Experimental: (§1) Based on the result of metabolite identification, two metabolites were selected as targets for metabolic phenotyping analysis. Seven CYP isozymes (CYP1A2, CYP2B6, CYP2C8, CYP2C9, CYP2C19, CYP2D6, and CYP3A4) were investigated using the rhCYP isozymes method. In brief, 7–16 (1 µΜ) was incubated with each rhCYP isozyme ([…]) in 100 mM sodium phosphate buffer (pH 7.4) containing 3 mM magnesium chloride. After 10 min of preincubation at 37 °C, the reactions were initiated by adding NADPH (1 mM) and then incubated at 37 °C in a shaking water bath for 0, 5, 15, and 30 min. The specific substrates of each rhCYP isozyme were incubated as the above method to confirm the activity of the incubation system. The samples were prepared in triplicates. The reactions were terminated by adding three times the volume of ice-cold acetonitrile (600 µL) and stored at −20 °C until analysis. After pre-treatment, the samples were determined by the LC–MS/MS (Shimadzu Exion-Triple Quad 4500) method. The relative contribution rate of each isozyme to the metabolism of 7–16 was evaluated in HLMs using the following formula: Contributionx% = Vx × Abundancex (pmol/mg protein)/Σ(Vi × Abundancei). Vx (µL/min/pmol) is the production rate of metabolites for each rhCYP isozyme.

CYP2D6 [1] = test: Metabolic phenotype by rhCYP isozymes, CYP2D6; format: in vitro ADME, human; details: 7–16 1 µM
Experimental: as §1

OAT1 = molecular target: T1, OAT1 (Homo sapiens, UniProt Q4U2R8); test: OAT1 inhibitor assay in HEK293 cells; format: in vitro ADME; details: substrate p-Aminohippurate, read-out: Inhibition IC50, OAT1
T1 construct: host or cells: HEK293
T1 sequence (Q4U2R8 1-563): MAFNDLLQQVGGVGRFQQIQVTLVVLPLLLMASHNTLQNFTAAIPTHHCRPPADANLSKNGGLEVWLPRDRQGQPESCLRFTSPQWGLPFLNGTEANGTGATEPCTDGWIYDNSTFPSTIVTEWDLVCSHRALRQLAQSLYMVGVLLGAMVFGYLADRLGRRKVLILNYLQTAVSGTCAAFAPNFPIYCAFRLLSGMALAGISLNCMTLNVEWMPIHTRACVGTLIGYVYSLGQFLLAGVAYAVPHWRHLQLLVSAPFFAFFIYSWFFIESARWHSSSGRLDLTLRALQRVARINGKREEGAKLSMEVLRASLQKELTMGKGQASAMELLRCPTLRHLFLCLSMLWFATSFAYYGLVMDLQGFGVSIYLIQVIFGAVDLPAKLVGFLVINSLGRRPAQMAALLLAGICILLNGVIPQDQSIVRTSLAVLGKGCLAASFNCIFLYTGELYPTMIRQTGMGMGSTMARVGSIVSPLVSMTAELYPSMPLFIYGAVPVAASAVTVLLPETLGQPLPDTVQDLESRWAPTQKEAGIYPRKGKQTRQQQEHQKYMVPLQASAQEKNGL

OAT3 = molecular target: T2, OAT3 (Homo sapiens, UniProt Q8TCC7)
T2 sequence (Q8TCC7 1-542): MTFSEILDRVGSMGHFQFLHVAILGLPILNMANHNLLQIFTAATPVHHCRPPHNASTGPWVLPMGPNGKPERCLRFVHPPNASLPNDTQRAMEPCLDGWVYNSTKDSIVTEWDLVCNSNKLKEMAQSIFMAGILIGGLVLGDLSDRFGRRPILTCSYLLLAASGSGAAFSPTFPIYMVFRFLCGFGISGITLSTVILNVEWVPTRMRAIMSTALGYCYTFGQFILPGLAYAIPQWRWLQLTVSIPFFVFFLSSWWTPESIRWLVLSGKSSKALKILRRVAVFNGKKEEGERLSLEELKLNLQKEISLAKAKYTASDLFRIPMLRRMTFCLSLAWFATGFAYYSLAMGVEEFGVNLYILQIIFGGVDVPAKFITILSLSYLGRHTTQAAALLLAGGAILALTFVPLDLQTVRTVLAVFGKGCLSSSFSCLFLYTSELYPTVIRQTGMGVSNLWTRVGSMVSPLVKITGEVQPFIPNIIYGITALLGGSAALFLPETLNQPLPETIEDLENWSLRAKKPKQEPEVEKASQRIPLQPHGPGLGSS

OCT2 = molecular target: T3, OCT2 (Homo sapiens, UniProt O15244)
T3 sequence (O15244 1-555): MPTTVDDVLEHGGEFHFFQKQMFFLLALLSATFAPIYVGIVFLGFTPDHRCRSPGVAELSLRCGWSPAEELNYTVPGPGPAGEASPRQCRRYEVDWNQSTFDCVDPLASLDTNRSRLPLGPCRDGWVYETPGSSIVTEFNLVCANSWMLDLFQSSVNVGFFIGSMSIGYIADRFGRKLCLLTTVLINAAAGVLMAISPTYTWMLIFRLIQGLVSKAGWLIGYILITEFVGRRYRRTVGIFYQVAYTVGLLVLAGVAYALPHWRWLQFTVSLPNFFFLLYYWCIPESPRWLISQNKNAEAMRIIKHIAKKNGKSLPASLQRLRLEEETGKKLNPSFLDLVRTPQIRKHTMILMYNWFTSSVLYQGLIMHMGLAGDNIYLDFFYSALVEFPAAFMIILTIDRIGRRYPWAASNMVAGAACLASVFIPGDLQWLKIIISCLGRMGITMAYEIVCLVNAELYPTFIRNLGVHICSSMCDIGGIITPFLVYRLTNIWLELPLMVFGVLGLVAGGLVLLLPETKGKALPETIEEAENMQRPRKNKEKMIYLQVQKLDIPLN

5-HT2A receptors = tested on: 5-HT2A receptors; design: method as in PMID 35279606; details: head twitches test in rats; cited from earlier work
CYP1A2 = tested on: CYP1A2; design: method as in PMID 35279606; details: previous study; read-out: CYP1A2 inhibition IC50; cited from earlier work
CYP2C9 = tested on: CYP2C9; design: method as in PMID 35279606; details: previous study; read-out: CYP2C9 inhibition IC50; cited from earlier work
CYP2D6 [2] = tested on: CYP2D6; design: method as in PMID 35279606; details: previous study; read-out: CYP2D6 inhibition IC50; cited from earlier work

CN1CCC(N(Cc2ccc(F)cn2)C(=O)NCc2ccc(OCC(F)(F)F)cc2)CC1 [7–16, 3-(4-(2,2,2-trifluoroethoxy)benzyl)-1-((5-fluoropyridin-2-yl)methyl)-1-(1-methylpiperidin-4-yl) urea]
relative contribution of CYP2C8 to metabolism (CYP2C8): little or no contribution
relative contribution of CYP2D6 to metabolism (CYP2D6 [1]): little or no contribution
IC50 (OAT1): > 100 µM
IC50 (OAT3): > 100 µM
IC50 (OCT2): 72.5 µM
potency for blocking 5-HT2A receptors relative to pimavanserin (5-HT2A receptors): at least four times more potent than pimavanserin
IC50 (CYP1A2): 8.5 µM
IC50 (CYP2C9): > 62.9 µM
IC50 (CYP2D6 [2]): > 62.9 µM
